Assay: xn = mol fraction of the nth substance listed
Conditions: 101.3 kPa

CC[n+]1ccn(C)c1.O=S(=O)([O-])C(F)(F)F + CCCCCO
speed of sound [m/s]
Conditions	298.15 K	308.15 K	318.15 K	328.15 K
x2 = 0	1435.8	1413.5	–	1369.8
x2 = 0.0507	1431.8	1409.5	–	–
x2 = 0.108	1423.1	1400.8	1378.7	1357.1
x2 = 0.1716	–	1387.5	1365.4	–
x2 = 0.2365	1395.2	–	1350.1	1328.1
x2 = 0.3297	1373.9	1350.8	1328	1305.7
x2 = 0.4357	1348.1	–	1301.1	1278.1
x2 = 0.5702	1317.4	1292.8	1268.5	1244.5
x2 = 0.5941	1312	1287.2	1262.7	1238.5
x2 = 0.7208	1287.9	1261.6	–	–
x2 = 0.8085	–	1249.1	1221.4	1194
x2 = 0.8515	1273.4	1244.7	1216.1	1187.7
x2 = 0.8998	1271.4	1241.4	1211.5	1181.9
x2 = 0.9479	1271.7	1240.2	–	1177.7

CCCCCO + CC[n+]1ccn(C)c1.O=S(=O)([O-])C(F)(F)F
x1 = 1
Conditions	speed of sound [m/s]
298.15 K	1274.9
308.15 K	1241.4
328.15 K	1175.3

Source: a compilation of properties of binary mixtures (doi:10.1016/j.jct.2016.03.014)
